This is an account of results in patent US20230295115A1, “SUBSTITUTED ISOQUINOLINYLMETHYL AMIDES, ANALOGUES THEREOF, AND METHODS USING SAME” (priority 2020, published 2023).

For the first test, the system named is HBV rcDNA. Briefly: HepDE19 assay with bDNA quantitation of HBV rcDNA. Format: cell-based, hepatitis B virus (HBV). The settings on record: HepDE19 cells, 7 day incubation, rcDNA measured by Quantigene 2.0 bDNA assay, top concentration 25 μM; read-out: DE-19bDNA EC50. The method, then: HepDE19 assay with bDNA quantitation of HBV rcDNA:
HepDE19 (50,000 cells/well) were plated in 96-well collagen-coated tissue-culture treated microtiter plates in DMEM/F12 medium supplemented with 10% fetal bovine serum, 1% penicillin-streptomycin and 1 μg/mL tetracycline and incubated in a humidified incubator at 37° C. and 5% CO2 overnight. Next day, the cells were switched to fresh medium without tetracycline and incubated for 4 hours at 37° C. and 5% CO2. […] The final DMSO concentration in the assay was 0.5%. The plates were incubated for 7 days in a humidified incubator at 37° C. and 5% CO2. Following a 7 day-incubation, the level of rcDNA present in the inhibitor-treated wells was measured using a Quantigene 2.0 bDNA assay kit (Affymetrix, Santa Clara, CA) with HBV specific custom probe set and manufacturers instructions. Concurrently, the effect of compounds on cell viability was assessed using replicate plates, plated at a density of 5,000 cells/well and incubated for 4 days, to determine the ATP content as a measure of cell viability using the cell-titer glo reagent (CTG; Promega Corporation, Madison, WI) as per manufacturer's instructions.
As usually defined, the EC50 is the midpoint of the concentration-response curve. `CC(c1c[nH]c(=O)c2cc(F)c(F)cc12)N(CCCO)C(=O)c1cc2ccccc2[nH]1` (single isomer, unassigned) [Compound 28, N-(1-(6,7-Difluoro-1-oxo-1,2-dihydroisoquinolin-4-yl)ethyl)-N-(3-hydroxypropyl)-1H-indole-2-carboxamide]: the EC50 was found to be 0.04 µM. For the molecule `CC(c1c[nH]c(=O)c2cc(F)c(F)cc12)N(C)C(=O)[C@@H]1Cc2ccccc2N1` (single isomer, unassigned) [Compound 30], the concentration giving a half-maximal response (EC50) was 0.02 µM. As to `CC(c1c[nH]c(=O)c2cc(F)c(F)cc12)N(C)C(=O)[C@@H]1Cc2ccccc2N1` (single isomer, unassigned) [Compound 31], the EC50 was 20 µM.

Turning to `CC(c1c[nH]c(=O)c2cc(F)c(F)cc12)N(C)C(=O)[C@H]1Cc2ccccc2CN1` (single isomer, unassigned) [Compound 32], the EC50 was not below 25 µM. Same read-out and setting: in the case of `CC(c1c[nH]c(=O)c2cc(F)c(F)cc12)N(C)C(=O)[C@H]1Cc2ccccc2CN1` (single isomer, unassigned) [Compound 33] it was 6.6 µM; in that of `CC(c1c[nH]c(=O)c2cc(F)c(F)cc12)N(C)C(=O)c1cc2ccccc2n1C` (single isomer, unassigned) [Compound 43, N-(1-(6,7-Difluoro-1-oxo-1,2-dihydroisoquinolin-4-yl)ethyl)-N,1-dimethyl-1H-indole-2-carboxamide], 4.3 µM. As to `CC(c1c[nH]c(=O)c2cc(F)c(F)cc12)N(C)C(=O)c1cc2ccccc2n1C` (single isomer, unassigned) [Compound 44, N-(1-(6,7-Difluoro-1-oxo-1,2-dihydroisoquinolin-4-yl)ethyl)-N,1-dimethyl-1H-indole-2-carboxamide], the EC50 came out at 0.3 µM. On the same count and under the same terms, in the case of `CC(c1c[nH]c(=O)c2cc(F)c(F)cc12)N(C)C(=O)c1cn2ccccc2n1` (single isomer, unassigned) [Compound 45, N-(1-(6,7-Difluoro-1-oxo-1,2-dihydroisoquinolin-4-yl)ethyl)-N-methylimidazo[1,2-a]pyridine-2-carboxamide] it was 2.5 µM; in that of `CC(c1c[nH]c(=O)c2cc(F)c(F)cc12)N(C)C(=O)c1cn2ccccc2n1` (single isomer, unassigned) [Compound 46, N-(1-(6,7-Difluoro-1-oxo-1,2-dihydroisoquinolin-4-yl)ethyl)-N-methylimidazo[1,2-a]pyridine-2-carboxamide], 21 µM. In the case of `CC(c1c[nH]c(=O)c2cc(F)c(F)cc12)N(C)C(=O)c1cc2c([nH]1)CCC2` (single isomer, unassigned) [Compound 47, N-(1-(6,7-Difluoro-1-oxo-1,2-dihydroisoquinolin-4-yl)ethyl)-N-methyl-1,4,5,6-tetrahydro cyclopenta[b]pyrrole-2-carboxamide], the EC50 is not below 25 µM. Same read-out and setting: the same measure for `CC(c1c[nH]c(=O)c2cc(F)c(F)cc12)N(C)C(=O)c1cc2c([nH]1)CCC2` (single isomer, unassigned) [Compound 48, N-(1-(6,7-Difluoro-1-oxo-1,2-dihydroisoquinolin-4-yl)ethyl)-N-methyl-1,4,5,6-tetrahydro cyclopenta[b]pyrrole-2-carboxamide]: 0.15 µM; for `CC(c1c[nH]c(=O)c2cc(F)c(F)cc12)N(C)C(=O)c1nc2cc(F)c(F)cc2[nH]1` (single isomer, unassigned) [Compound 49, N-(1-(6,7-Difluoro-1-oxo-1,2-dihydroisoquinolin-4-yl)ethyl)-5,6-difluoro-N-methyl-1H-benzo[d]imidazole-2-carboxamide]: 3.1 µM. Still for that read-out and setting: the same measure for `CC(c1c[nH]c(=O)c2cc(F)c(F)cc12)N(C)C(=O)c1nc2cc(F)c(F)cc2[nH]1` (single isomer, unassigned) [Compound 50, N-(1-(6,7-Difluoro-1-oxo-1,2-dihydroisoquinolin-4-yl)ethyl)-5,6-difluoro-N-methyl-1H-benzo[d]imidazole-2-carboxamide]: 0.29 µM; for `CC(c1c[nH]c(=O)c2cc(F)c(F)cc12)N(C)C(=O)c1c[nH]c2ccccc12` (single isomer, unassigned) [Compound 53, N-(1-(6,7-Difluoro-1-oxo-1,2-dihydroisoquinolin-4-yl)ethyl)-N-methyl-1H-indole-3-carboxamide]: not below 25 µM. On the same count and under the same terms, the same measure for `CC(c1c[nH]c(=O)c2cc(F)c(F)cc12)N(C)C(=O)c1c[nH]c2ccccc12` (single isomer, unassigned) [Compound 54, N-(1-(6,7-Difluoro-1-oxo-1,2-dihydroisoquinolin-4-yl)ethyl)-N-methyl-1H-indole-3-carboxamide]: 5.1 µM; for `CC(c1c[nH]c(=O)c2cc(F)c(F)cc12)N(C)C(=O)c1n[nH]c2ccccc12` (single isomer, unassigned) [Compound 56, N-(1-(6,7-Difluoro-1-oxo-1,2-dihydroisoquinolin-4-yl)ethyl)-N-methyl-2H-indazole-3-carboxamide]: not below 25 µM; for `CC(c1c[nH]c(=O)c2c(F)c(F)ccc12)N(C)C(=O)c1cc2c([nH]1)CCC2` (single isomer, unassigned) [Compound 57, N-(1-(7,8-Difluoro-1-oxo-1,2-dihydroisoquinolin-4-yl)ethyl)-N-methyl-1,4,5,6-tetrahydrocyclopenta[b]pyrrole-2-carboxamide]: 12 µM. For `CC(c1c[nH]c(=O)c2c(F)c(F)ccc12)N(C)C(=O)c1cc2c([nH]1)CCC2` (single isomer, unassigned) [Compound 58, N-(1-(7,8-Difluoro-1-oxo-1,2-dihydroisoquinolin-4-yl)ethyl)-N-methyl-1,4,5,6-tetrahydrocyclopenta[b]pyrrole-2-carboxamide], the EC50 was 1.8 µM. The same measure, in the same setting: the same measure for `CC(c1c[nH]c(=O)c2cc(F)c(F)cc12)N(C)C(=O)c1cc2c(Cl)cccn2c1` (single isomer, unassigned) [Compound 77, 8-Chloro-N-(1-(6,7-difluoro-1-oxo-1,2-dihydroisoquinolin-4-yl)ethyl)-N-methylindolizine-2-carboxamide]: 2 µM; for `CC(c1c[nH]c(=O)c2cc(F)c(F)cc12)N(C)C(=O)c1cc2c(Cl)cccn2c1` (single isomer, unassigned) [Compound 78, 8-Chloro-N-(1-(6,7-difluoro-1-oxo-1,2-dihydroisoquinolin-4-yl)ethyl)-N-methylindolizine-2-carboxamide]: 0.01 µM; for `CC(c1c[nH]c(=O)c2cc(F)c(F)cc12)N(C)C(=O)c1cc2c(F)cccn2c1` (single isomer, unassigned) [Compound 79, N-(1-(6,7-Difluoro-1-oxo-1,2-dihydroisoquinolin-4-yl)ethyl)-8-fluoro-N-methylindolizine-2-carboxamide]: 3.3 µM.

The same test, now with this note: Hepatitis B virus, HepDE19, 168 h, HepDE19 cells, 7 day incubation, rcDNA measured by Quantigene 2.0 bDNA assay, top concentration 25 μM; read-out: DE-19bDNA EC50.
In the case of `CC(c1c[nH]c(=O)c2cc(F)c(F)cc12)N(C)C(=O)c1n[nH]c2ccccc12` (single isomer, unassigned) [Compound 55, N-(1-(6,7-Difluoro-1-oxo-1,2-dihydroisoquinolin-4-yl)ethyl)-N-methyl-2H-indazole-3-carboxamide], the EC50 came out at 16 µM. Still for that read-out and setting: in the case of `CC(c1c[nH]c(=O)c2cc(F)c(F)cc12)N(C)C(=O)c1cc2ccccn2c1` (single isomer, unassigned) [Compound 70, N-(1-(6,7-Difluoro-1-oxo-1,2-dihydroisoquinolin-4-yl)ethyl)-N-methylindolizine-2-carboxamide] it was 0.02 µM.

Staying with this test, now noted: read-out: DE-19bDNA EC50; HepDE19 cells, 7 day incubation, rcDNA measured by Quantigene 2.0 bDNA assay, top concentration 25 μM.
`CC(c1c[nH]c(=O)c2cc(F)c(F)cc12)N(C)C(=O)c1cc2cccnc2[nH]1` (single isomer, unassigned) [Compound 51, N-(1-(6,7-Difluoro-1-oxo-1,2-dihydroisoquinolin-4-yl)ethyl)-N-methyl-1H-pyrrolo[2,3-b]pyridine-2-carboxamide]: the EC50 was found to be 0.79 µM.

`CC(c1c[nH]c(=O)c2cc(F)c(F)cc12)N(C)C(=O)c1cc2cccnc2[nH]1` (single isomer, unassigned) [Compound 52, N-(1-(6,7-Difluoro-1-oxo-1,2-dihydroisoquinolin-4-yl)ethyl)-N-methyl-1H-pyrrolo[2,3-b]pyridine-2-carboxamide]: the EC50 was not below 25 µM.

Turning to `CC(c1c[nH]c(=O)c2cc(F)c(F)cc12)N(C)C(=O)c1cc2ccccn2c1` (single isomer, unassigned) [Compound 69, N-(1-(6,7-Difluoro-1-oxo-1,2-dihydroisoquinolin-4-yl)ethyl)-N-methylindolizine-2-carboxamide], the concentration giving a half-maximal response (EC50) came out at 5.7 µM. On the same count and under the same terms, in the case of `CC(c1c[nH]c(=O)c2c(F)c(F)ccc12)N(C)C(=O)c1cc2ccccn2c1` (single isomer, unassigned) [Compound 71, N-(1-(7,8-Difluoro-1-oxo-1,2-dihydroisoquinolin-4-yl)ethyl)-N-methylindolizine-2-carboxamide] it was 6.5 µM; in that of `CC(c1c[nH]c(=O)c2c(F)c(F)ccc12)N(C)C(=O)c1cc2ccccn2c1` (single isomer, unassigned) [Compound 72, N-(1-(7,8-Difluoro-1-oxo-1,2-dihydroisoquinolin-4-yl)ethyl)-N-methylindolizine-2-carboxamide], 0.14 µM.
